This passage reports IC50 results from patent US6972296B2, “Carboxylic acid derivatives that inhibit the binding of integrins to their receptors” (Encysive Pharmaceuticals Inc., priority 1999, dated 2005).

In the experiment the target is T1, α4β1 integrin (Homo sapiens, UniProt P05556+P13612).
T1 construct: endogenous in cells; host or cells: Ramos cells
In words: Adhesion of calcein-labeled Ramos cells to CS1 (fibronectin) peptide conjugated ovalbumin. It is filed as cell-based. Conditions: Ramos cell adhesion to CS1 conjugated ovalbumin. The gist of the method:
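Calcein AM-labelled Ramos cells (2.5×10^5/well) with compound, up to 100 μM, added to plates coated with CS1 peptide–ovalbumin (0.5 μg/ml) and blocked with 3% BSA. Binding buffer TBS pH 7.5 with 1 mM each MgCl2, CaCl2, MnCl2; 30 min, 37 °C. After washes, adherent cells lysed and read fluorometrically; […].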

Setting [1] is: Table 7, dose required to give 50% inhibition.
Setting [2] is: Table 5, dose required to give 50% inhibition.

The structures appear in SMILES notation. pIC50: −log10 of the molar value. Some results are limits rather than exact numbers.

Usually pIC50 stands for the IC50 on a negative log10 scale, so that one unit is a factor of ten.

T1 sequence (P13612 34-1032): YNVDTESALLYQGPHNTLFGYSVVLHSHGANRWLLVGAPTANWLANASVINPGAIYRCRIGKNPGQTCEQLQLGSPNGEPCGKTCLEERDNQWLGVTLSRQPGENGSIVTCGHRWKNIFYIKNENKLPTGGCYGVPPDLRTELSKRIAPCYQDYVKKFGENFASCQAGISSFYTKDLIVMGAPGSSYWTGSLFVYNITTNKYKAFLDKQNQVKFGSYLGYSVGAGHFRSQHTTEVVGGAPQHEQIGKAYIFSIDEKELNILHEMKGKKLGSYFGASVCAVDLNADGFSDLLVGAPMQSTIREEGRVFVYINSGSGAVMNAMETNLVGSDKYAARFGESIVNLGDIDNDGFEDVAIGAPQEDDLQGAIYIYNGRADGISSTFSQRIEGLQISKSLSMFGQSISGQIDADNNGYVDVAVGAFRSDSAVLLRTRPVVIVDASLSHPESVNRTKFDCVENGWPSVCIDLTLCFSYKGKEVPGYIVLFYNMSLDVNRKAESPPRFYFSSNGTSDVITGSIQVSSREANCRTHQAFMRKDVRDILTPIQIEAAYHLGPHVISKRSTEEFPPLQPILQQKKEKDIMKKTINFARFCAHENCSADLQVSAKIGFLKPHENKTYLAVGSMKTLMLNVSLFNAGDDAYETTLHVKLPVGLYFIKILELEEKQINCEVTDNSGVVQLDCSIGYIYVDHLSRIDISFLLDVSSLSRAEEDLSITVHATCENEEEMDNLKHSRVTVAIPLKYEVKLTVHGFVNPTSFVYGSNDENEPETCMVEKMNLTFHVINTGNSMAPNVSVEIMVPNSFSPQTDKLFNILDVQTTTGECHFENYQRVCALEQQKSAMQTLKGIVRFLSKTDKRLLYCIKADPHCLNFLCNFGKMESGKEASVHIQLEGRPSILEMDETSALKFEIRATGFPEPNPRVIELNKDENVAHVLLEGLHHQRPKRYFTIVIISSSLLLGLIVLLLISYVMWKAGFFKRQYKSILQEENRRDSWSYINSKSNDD
T1 sequence (P05556 21-798): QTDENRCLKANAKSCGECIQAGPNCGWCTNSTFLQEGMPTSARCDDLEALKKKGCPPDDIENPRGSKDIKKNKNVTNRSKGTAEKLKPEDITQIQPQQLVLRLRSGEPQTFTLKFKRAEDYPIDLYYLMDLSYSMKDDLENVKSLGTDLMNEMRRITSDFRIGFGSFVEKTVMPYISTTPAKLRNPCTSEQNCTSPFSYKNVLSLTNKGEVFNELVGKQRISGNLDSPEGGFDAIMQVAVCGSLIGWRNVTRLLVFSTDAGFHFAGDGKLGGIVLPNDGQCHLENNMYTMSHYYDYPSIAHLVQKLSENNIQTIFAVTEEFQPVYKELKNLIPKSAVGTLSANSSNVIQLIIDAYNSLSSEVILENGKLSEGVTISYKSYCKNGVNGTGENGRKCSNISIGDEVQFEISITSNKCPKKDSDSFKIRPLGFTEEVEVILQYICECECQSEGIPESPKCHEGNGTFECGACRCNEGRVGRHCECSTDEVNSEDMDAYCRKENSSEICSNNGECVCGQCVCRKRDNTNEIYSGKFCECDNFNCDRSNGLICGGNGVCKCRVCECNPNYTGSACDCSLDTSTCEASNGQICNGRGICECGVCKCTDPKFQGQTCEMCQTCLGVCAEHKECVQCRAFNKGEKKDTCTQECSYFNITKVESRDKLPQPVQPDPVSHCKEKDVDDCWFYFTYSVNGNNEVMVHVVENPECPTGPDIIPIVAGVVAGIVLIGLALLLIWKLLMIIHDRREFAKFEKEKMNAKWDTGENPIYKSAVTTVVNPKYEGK

On to `CSc1ccc(C(CC(=O)O)NC(=O)Nc2c(O)c(C)cn(Cc3ccccc3Cl)c2=O)cc1` (centres unmarked), for which the pIC50 under setting [1] is 7.82. On to `Cc1ccc([C@@H](NC(=O)Nc2c(O)c(C)cn(Cc3ccccc3Cl)c2=O)[C@H](C)C(=O)O)cc1`, for which the pIC50 under setting [1] was 5.82. With `CCCCOc1cccc([C@H](CC(=O)O)NC(=O)Nc2c(O)c(C)cn(Cc3c(Cl)cccc3OCC)c2=O)c1`, the pIC50 under setting [1] was 8.40. Consider `CCOc1cccc([C@H](CC(=O)O)NC(=O)Nc2c(O)c(C)cn(Cc3c(Cl)cccc3OCC(F)(F)F)c2=O)c1`, for which, under setting [1], the pIC50 is 8.40.

As for `CCOc1cccc(Cl)c1Cn1c2c(c(O)c(NC(=O)N[C@@H](CC(=O)O)c3ccc4cc(OC)ccc4c3)c1=O)CCC2`, the pIC50 under setting [1] is 8.70. `CCCOc1cccc([C@H](CC(=O)O)NC(=O)Nc2c(O)c(C)cn(Cc3c(Cl)cccc3OCC)c2=O)c1`: under setting [1], the pIC50 is 8.52. Same read-out and setting: under `Cc1cccc(Cl)c1Cn1c2c(c(O)c(NC(=O)N[C@@H](CC(=O)O)c3cccc(OC(C)C)c3)c1=O)CCC2` stands 8.00. Take `Cc1cn(Cc2ccccc2Cl)c(=O)c(NC(=O)N[C@@H](CC(=O)O)c2ccc3c(c2)CCO3)c1O`: the pIC50 under setting [1] is 8.22.

With `Cc1cccc(Cl)c1Cn1c2c(c(O)c(NC(=O)N[C@@H](CC(=O)O)c3cccc(OC(F)(F)F)c3)c1=O)CCC2`, under setting [1], the pIC50 was 7.96. The same measure, in the same setting: to `CCN(CC)c1cccc([C@H](CC(=O)O)NC(=O)Nc2c(O)c3c(n(Cc4c(C)cccc4Cl)c2=O)CCC3)c1` belongs 8.00; to `CCc1ccc([C@H](CC(=O)O)NC(=O)Nc2c(O)c3c(n(Cc4c(C)cccc4Cl)c2=O)CCC3)cc1`, 7.82. With `Cc1cccc([C@H](CC(=O)O)NC(=O)Nc2c(O)c3c(n(Cc4c(C)cccc4Cl)c2=O)CCC3)c1`, under setting [1], the pIC50 is 8.40.

Turning to `Cc1cccc(Cl)c1Cn1c2c(c(O)c(NC(=O)N[C@@H](CC(=O)O)c3ccccc3)c1=O)CCC2`, under setting [1], the pIC50 is 7.77.

On to `COc1ccc([C@H](CC(=O)O)NC(=O)Nc2c(O)c3c(n(Cc4c(C)cccc4Cl)c2=O)CCC3)cc1F`, for which the negative-log IC50 (pIC50) under setting [1] is 8.52. As to `O=C(O)C[C@H](NC(=O)Nc1c(O)c2c(n(Cc3ccccc3Cl)c1=O)CCC2)c1cccc(O)c1`, under setting [1], the pIC50 is 8.10. In the case of `O=C(O)C[C@H](NC(=O)Nc1c(O)c2c(n(Cc3ccccc3Cl)c1=O)CCC2)c1cccc(C(F)F)c1`, under setting [1], the pIC50 is 8.40. As for `CC1(C)Cc2cc([C@H](CC(=O)O)NC(=O)Nc3c(O)c4c(n(Cc5ccccc5Cl)c3=O)CCC4)ccc2O1`, the pIC50 under setting [1] is 8.52.

Turning to `Cc1cn(Cc2ccccc2Cl)c(=O)c(NC(=O)N[C@@H](CC(=O)O)c2cccc(-c3ccccc3C(F)(F)F)c2)c1O`, under setting [1], the pIC50 is 6.80.

As to `Cc1cn(Cc2ccccc2Cl)c(=O)c(NC(=O)N[C@@H](CC(=O)O)c2cccc(-c3ccccc3F)c2)c1O`, under setting [1], the pIC50 was 7.60. Same read-out and setting: to `Cc1cn(Cc2ccccc2Cl)c(=O)c(NC(=O)N[C@@H](CC(=O)O)c2ccccc2F)c1O` belongs 8.00; to `Cc1cn(Cc2ccccc2Cl)c(=O)c(NC(=O)N[C@@H](CC(=O)O)c2cccc(O)c2)c1O`, 8.05; to `Cc1cc(C)cc(-c2cccc([C@H](CC(=O)O)NC(=O)Nc3c(O)c(C)cn(Cc4ccccc4Cl)c3=O)c2)c1`, 7.30. In the case of `Cc1cn(Cc2ccccc2Cl)c(=O)c(NC(=O)N[C@@H](CC(=O)O)c2ccccc2)c1O`, the pIC50 under setting [1] is 7.82. Take `O=C(Nc1cccn(Cc2cccs2)c1=O)NC(c1ccc2c(c1)OCO2)C(F)(F)C(=O)O` (centres unmarked) [3-(1,3-benzodioxol-5-yl)-2,2-difluoro-3-[({[2-oxo-1-(2-thiophenylmethyl)-1,2-dihydro-3-pyridinyl]amino}carbonyl)amino]propanoic acid]: the pIC50 (Table 4, 30 minutes at 37° C.) is less than 4.00. As for `O=C(O)CC(NC(=O)Nc1c(O)ccn(Cc2ccccc2Cl)c1=O)c1ccc2ccccc2c1` (centres unmarked) [3-[({[1-(2-chlorobenzyl)-4-hydroxy-2-oxo-1,2-dihydropyridin-3-yl]amino}carbonyl)amino]-3-(2-naphthyl)propanoic acid], the negative logarithm of the IC50 (pIC50) under setting [2] is 7.70.

With `Cc1ccc([C@H](CC(=O)O)NC(=O)Nc2c(Nc3ccc(C(=O)O)cc3)ccn(Cc3ccccc3Cl)c2=O)cc1` [4-{[3-[({[(1S)-2-carboxy-1-(4-methylphenyl)ethyl]amino}carbonyl)amino]-1-(2-chlorobenzyl)-2-oxo-1,2-dihydropyridin-4-yl]amino}benzoic acid], the pIC50 under setting [2] was 8.40.

As for `O=C(O)C[C@H](NC(=O)N1CCCCc2ccn(Cc3ccccc3)c(=O)c21)c1ccc2c(c1)OCO2` [(3S)-3-(1,3-benzodioxol-5-yl)-3-({[9-oxo-8-(phenylmethyl)-2,3,4,5,8,9-hexahydro-1H-pyrido[3,4-b]azepin-1-yl]carbonyl}amino)propanoic acid], the negative-log IC50 (pIC50) (Table 3, 30 minutes at 37° C.) is 5.40. For `O=C(O)C[C@H](NC(=O)Nc1cccn(CC2CCCC2)c1=O)c1ccc2c(c1)OCO2` [(3S)-3-(1,3-benzodioxol-5-yl)-3-[({[1-(cyclopentylmethyl)-2-oxo-1,2-dihydro-3-pyridinyl]amino}carbonyl)amino]propanoic acid], the pIC50 (Table 4, 30 minutes at 37° C.) is 5.22.

As for `O=C(O)C[C@H](NC(=O)Nc1cccn(Cc2cccs2)c1=O)c1ccc2c(c1)OCO2` [(3S)-3-(1,3-benzodioxol-5-yl)-3-[({[2-oxo-1-(2-thienylmethyl)-1,2-dihydro-3-pyridinyl]amino}carbonyl)amino]propanoic acid], the pIC50 (Table 2, 30 minutes at 37° C.) is 6.05. In the case of `CCCc1ccn(Cc2ccccc2)c(=O)c1NC(=O)N[C@@H](CC(=O)O)c1ccc2c(c1)OCO2` [(3S)-3-(1,3-benzodioxol-5-yl)-3-[({[2-oxo-1-(phenylmethyl)-4-propyl-1,2-dihydro-3-pyridinyl]amino}carbonyl)amino]propanoic acid], where the note is “Table 3, 30 minutes at 37° C.”, the pIC50 is 8.00. As to `O=C(O)C[C@H](NC(=O)N[C@H]1CCCN(Cc2cccs2)C1=O)c1ccc2c(c1)OCO2` [(3S)-3-(1,3-benzodioxol-5-yl)-3-[({[(3S)-2-oxo-1-(2-thienylmethyl)hexahydro-3-pyridinyl]amino}carbonyl)amino]propanoic acid], the pIC50 (Table 2, 30 minutes at 37° C.) was 6.70.

In the case of `O=C(O)C[C@H](NC(=O)N[C@H]1CCN(Cc2cccs2)C1=O)c1ccc2c(c1)OCO2` [(3S)-3-(1,3-benzodioxol-5-yl)-3-[({[(3S)-2-oxo-1-(2-thienylmethyl)tetrahydro-1H-pyrrol-3-yl]amino}carbonyl)amino]propanoic acid], the pIC50 (Table 2, 30 minutes at 37° C.) is 4.82. Consider `CCCCOc1cccc([C@H](CC(=O)O)NC(=O)Nc2c(O)ccn(Cc3ccccc3Cl)c2=O)c1` [(3S)-3-(3-butoxyphenyl)-3-[({[1-(2-chlorobenzyl)-4-hydroxy-2-oxo-1,2-dihydropyridin-3-yl]amino}carbonyl)amino]propanoic acid], for which, under setting [2], the pIC50 is 8.30. On to `Cc1ccc([C@H](CC(=O)O)NC(=O)Nc2c(O)c(C)cn(Cc3c(Cl)cccc3N3CCCCC3)c2=O)cc1` [(3S)-3-({[(1-{[2-chloro-6-tetrahydro-1(2H)-pyridinylphenyl]methyl}-4-hydroxy-5-methyl-2-oxo-1,2-dihydro-3-pyridinyl)amino]carbonyl}amino)-3-(4-methylphenyl)propanoic acid], for which the pIC50 under setting [1] is 7.05. For `COc1cc(OC)cc([C@H](CC(=O)O)NC(=O)Nc2c(O)ccn(Cc3ccccc3Cl)c2=O)c1` [(3S)-3-[3,5-bis(methyloxy)phenyl]-3-{[({1-[(2-chlorophenyl)methyl]-4-hydroxy-2-oxo-1,2-dihydro-3-pyridinyl}amino)carbonyl]amino}propanoic acid], the pIC50 (Table 3, 30 minutes at 37° C.) is 8.52. Turning to `Cc1ccc([C@H](CC(=O)O)NC(=O)Nc2c(O)ccn(Cc3c(F)cccc3F)c2=O)cc1` [(3S)-3-[({[1-(2,6-difluorobenzyl)-4-hydroxy-2-oxo-1,2-dihydropyridin-3-yl]amino}carbonyl)amino]-3-(4-methylphenyl)propanoic acid], the pIC50 under setting [2] is 8.10. On the same count and under the same terms, to `COc1cccc(OC)c1Cn1ccc(O)c(NC(=O)N[C@@H](CC(=O)O)c2ccc(C)cc2)c1=O` [(3S)-3-[({[1-(2,6-dimethoxybenzyl)-4-hydroxy-2-oxo-1,2-dihydropyridin-3-yl]amino}carbonyl)amino]-3-(4-methylphenyl)propanoic acid] belongs 8.00.

Take `COc1ccc(Cl)c(Cn2cc(C)c(O)c(NC(=O)N[C@@H](CC(=O)O)c3ccc(C)cc3)c2=O)c1` [(3S)-3-[({[1-(2-chloro-5-methoxybenzyl)-4-hydroxy-5-methyl-2-oxo-1,2-dihydropyridin-3-yl]amino}carbonyl)amino]-3-(4-methylphenyl)propanoic acid]: the negative logarithm of the IC50 (pIC50) under setting [1] was 8.52. As to `Cc1ccc([C@H](CC(=O)O)NC(=O)Nc2c(O)ccn(Cc3c(Cl)cccc3C#N)c2=O)cc1` [(3S)-3-[({[1-(2-chloro-6-cyanobenzyl)-4-hydroxy-2-oxo-1,2-dihydropyridin-3-yl]amino}carbonyl)amino]-3-(4-methylphenyl)propanoic acid], the pIC50 under setting [2] was 8.15. With `CCOc1cccc([C@H](CC(=O)O)NC(=O)Nc2c(O)ccn(Cc3c(Cl)cccc3OCC)c2=O)c1` [(3S)-3-[({[1-(2-chloro-6-ethoxybenzyl)-4-hydroxy-2-oxo-1,2-dihydropyridin-3-yl]amino}carbonyl)amino]-3-(3-ethoxyphenyl)propanoic acid], the pIC50 (Table 6, 30 minutes at 37° C.) is 8.52.

Consider `CCOc1cccc(Cl)c1Cn1ccc(O)c(NC(=O)N[C@@H](CC(=O)O)c2cccc(OC(C)C)c2)c1=O` [(3S)-3-[({[1-(2-chloro-6-ethoxybenzyl)-4-hydroxy-2-oxo-1,2-dihydropyridin-3-yl]amino}carbonyl)amino]-3-(3-isopropoxyphenyl)propanoic acid], for which, under setting [1], the pIC50 is 8.52.
